The source of these data is patent US20120070411A1, “SUBSTITUTED NUCLEOTIDE ANALOGS” (Alios BioPharma, Inc., priority 2010, published 2012).

One assay deals with Huh-7 cells containing the self-replicating, subgenomic HCV replicon. Briefly: HCV replicon assay (luciferase reporter, 72 h). The class given is cell-based. The conditions noted are these: Hepatitis C virus, Huh-7, 72 h, read-out: HCV Replicon Activity (EC50). Here is the method: Huh-7 cells containing the self-replicating, subgenomic HCV replicon with a stable luciferase (LUC) reporter were cultured in Dulbecco's modified Eagle's medium (DMEM) containing 2 mM L-glutamine and supplemented with 10% heat-inactivated fetal bovine serum (FBS), 1% penicillin-streptomyocin, 1% nonessential amino acids, and 0.5 mg/ml G418.
On the first day, 5,000 HCV replicon cells were plated per well in a 96-well plate. On the following day, test compounds were solubilized in 100% DMSO to 100× the desired final testing concentration. Each compound was then serially diluted (1:3) up to 9 different concentrations. Compounds in 100% DMSO are reduced to 10% DMSO by diluting 1:10 in cell culture media. The compounds were diluted to 10% DMSO with cell culture media, which were used to dose the HCV replicon cells in 96-well format. The final DMSO concentration was 1%. The HCV replicon cells were incubated at 37° C. for 72 hours. At 72 hours, cells were processed when the cells are still subconfluent. Compounds that reduce the LUC signal are determined by Bright-Glo Luciferase Assay (Promega, Madison, Wis.). % Inhibition was determined for each compound concentration in relation to the control cells (untreated HCV replicon) to calculate the EC50.
On the technique in general: Replicon systems follow genome replication, usually without infectious particles.
In general, EC50 refers to the concentration at which the effect is half-maximal. For `COC(=O)[C@H](C)NP(=O)(Oc1ccccc1)O[C@H](C)[C@H]1O[C@@H](n2cnc3c(N)ncnc32)[C@H](O)[C@@H]1O` (stereo partly shown), the EC50 is less than 30 µM.

In the case of `COC(=O)[C@H](C)NP(=O)(Oc1ccccc1)O[C@@H](C)[C@H]1O[C@@H](n2cnc3c(N)ncnc32)[C@](C)(O)[C@@H]1O` (stereo partly shown), the half-maximal effective concentration (EC50) was less than 1000 µM. Turning to `CCOC(=O)[C@H](C)NP(=O)(Oc1ccccc1)O[C@@H](C)[C@H]1O[C@@H](n2cnc3c(N)ncnc32)[C@H](O)[C@@H]1O` (stereo partly shown), the EC50 is less than 30 µM. The same measure, in the same setting: under `COC(=O)[C@H](C)N[P@@](=O)(Oc1ccccc1)O[C@@H](C)[C@H]1O[C@@H](n2cnc3c(N)ncnc32)[C@H](O)[C@@H]1O` stands less than 5 µM. Same read-out and setting: under `COC(=O)[C@H](C)N[P@](=O)(Oc1ccccc1)O[C@@H](C)[C@H]1O[C@@H](n2cnc3c(N)ncnc32)[C@H](O)[C@@H]1O` stands less than 5 µM; under `COC(=O)[C@H](C)NP(=O)(Oc1ccccc1)O[C@@H](C)[C@H]1O[C@@H](n2ccc(N)nc2=O)C(F)(F)[C@@H]1O` (mixture of isomers) [C5, 2′-Deoxy-2′,2′-difluoro-5′(S)—C-methylcytidine 5′-[phenyl(methoxy-L-alaninyl)]phosphate], less than 1 µM. Still for that read-out and setting: under `COC(=O)[C@H](C)NP(=O)(Oc1ccccc1)OC(C)[C@H]1O[C@@H](n2ccc(N)nc2=O)[C@@H](F)[C@@H]1O` (mixture of isomers) [C9, 2′-deoxy-2′-C-β-fluoro-5′(R/S)—C-methylcytidine-5′-[phenyl-(methoxy-L-alaninyl)]phosphate] stands less than 100 µM; under `CC(C)OC(=O)[C@H](C)NP(=O)(Oc1cccc2ccccc12)OC(C)[C@H]1O[C@@H](n2ccc(N)nc2=O)[C@@H](C)[C@@H]1O` (mixture of isomers) [C10, 2′-deoxy-2′-C-β-methyl-5′(R/S)—C-methylcytidine 5′-[1-naphthyl (isopropoxy-L-alaninyl)]phosphate], less than 30 µM. In the case of `COC(=O)C(C)NP(=O)(Oc1ccccc1)OC(C)[C@H]1O[C@@H](n2ccc(=O)[nH]c2=O)C(C)C1O` (mixture of isomers) [D7], the concentration giving a half-maximal response (EC50) was less than 30 µM. For the compound `C[C@H](NP(=O)(Oc1ccc(F)cc1)O[C@@H](C)[C@H]1O[C@@H](n2cnc3c(N)ncnc32)[C@H](O)[C@@H]1O)C(=O)OC1CCCCC1` (stereo in doubt) [A31], the EC50 was less than 1 µM. Still for that read-out and setting: under `C[C@H](NP(=O)(Oc1cccc2ncccc12)O[C@@H](C)[C@H]1O[C@@H](n2cnc3c(N)ncnc32)[C@H](O)[C@@H]1O)C(=O)OC1CCCCC1` (stereo in doubt) [A35] stands less than 30 µM. On the same count and under the same terms, the result for `CC(C)OC(=O)[C@H](C)N[P@](=O)(Oc1cccc2ccccc12)O[C@@H](C)[C@H]1O[C@@H](n2cnc3c(=O)[nH]cnc32)[C@H](O)[C@@H]1O` (stereo in doubt) [B5, 5′(S)—C-methylinosine 5′-[1-naphthyl(isopropoxy-L-alaninyl)]phosphate] reads less than 100 µM; that for `COC(=O)C(C)NP(=O)(Oc1ccccc1)OC(C)[C@H]1O[C@@H](n2ccc(=O)[nH]c2=O)C(F)(F)C1O` (stereo in doubt) [D4, 2′-Deoxy-2′,2′-difluoro-5′(S)—C-methyluridine 5′-[phenyl(methoxy-L-alaninyl)]phosphate], less than 30 µM.

`C[C@H](NP(=O)(Oc1cccc2ccccc12)O[C@@H](C)[C@H]1O[C@@H](n2cnc3c(N)ncnc32)[C@H](O)[C@@H]1O)C(=O)OC1CCCCC1` (stereo partly drawn) [A1, 5′(S)—C-methyladenosine 5′-[1-naphthyl(cyclohexoxy-L-alaninyl)]phosphate]: the EC50 is less than 1 µM. The same measure, in the same setting: under `C[C@H](NP(=O)(Oc1cccc2ccccc12)O[C@@H](C)[C@H]1O[C@@H](n2cnc3c(N)ncnc32)[C@H](O)[C@@H]1O)C(=O)OCC(C)(C)C` (stereo partly drawn) [A2, 5′(S)—C-methyladenosine 5′-[1-naphthyl(neopentoxy-L-alaninyl)]phosphate] stands less than 1 µM; under `C[C@H](NP(=O)(Oc1cccc2ccccc12)O[C@@H](C)[C@H]1O[C@@H](n2cnc3c(N)ncnc32)[C@@H]2OC(=O)O[C@@H]21)C(=O)OC1CCCCC1` (stereo partly drawn) [A3, 2′,3′-O-carbonyl-5′(S)—C-methyladenosine 5′-[1-naphthyl(cyclohexoxy-L-alaninyl)]phosphate], less than 1 µM; under `C[C@H](NP(=O)(Oc1cccc2ccccc12)O[C@@H](C)[C@H]1O[C@@H](n2cnc3c(N)ncnc32)[C@@H]2OC(=O)O[C@@H]21)C(=O)OCC(C)(C)C` (stereo partly drawn) [A4, 2′,3′-O-carbonyl-5′(S)—C-methyladenosine 5′-[1-naphthyl(neopentoxy-L-alaninyl)]phosphate], less than 1 µM. Same read-out and setting: the result for `COC(=O)Nc1ncnc2c1ncn2[C@@H]1O[C@H]([C@H](C)OP(=O)(N[C@@H](C)C(=O)OC2CCCCC2)Oc2cccc3ccccc23)[C@H]2OC(=O)O[C@H]21` (stereo partly drawn) [A5, 2′,3′-O-carbonyl-N6-methoxycarbonyl-5′(S)—C-methyladenosine 5′-[1-naphthyl(cyclohexoxy-L-alaninyl)]phosphate] reads less than 30 µM; that for `COC(=O)Nc1ncnc2c1ncn2[C@@H]1O[C@H]([C@H](C)OP(=O)(N[C@@H](C)C(=O)OC2CCCCC2)Oc2cccc3ccccc23)[C@@H](O)[C@H]1O` (stereo partly drawn) [A6, N6-methoxycarbonyl-5′(S)—C-methyladenosine 5′-[1-naphthyl(cyclohexoxy-L-alaninyl)]phosphate], less than 30 µM; that for `COC(=O)Nc1ncnc2c1ncn2[C@@H]1O[C@H]([C@H](C)OP(=O)(N[C@@H](C)C(=O)OCC(C)(C)C)Oc2cccc3ccccc23)[C@H]2OC(=O)O[C@H]21` (stereo partly drawn) [A7, 2′,3′-O-carbonyl-N6-methoxycarbonyl-5′(S)—C-methyladenosine 5′-[1-naphthyl(neopentoxy-L-alaninyl)]phosphate], less than 30 µM.

The assay is the same for the next values; noted with them: Hepatitis C virus; Table 9; Huh-7 HCV replicon cells, luciferase, 72 hours; read-out: HCV Replicon Activity (EC50).
As to `CC(O)[C@H]1O[C@@H](n2ccc(N)nc2=O)[C@@H](F)[C@@H]1O` (stereo partly shown), the 50% effective concentration (EC50) lay in the range of 5 to 30 µM. Still for that read-out and setting: under `C[C@@H](O)[C@H]1O[C@@H](n2ccc(N)nc2=O)C(F)(F)[C@@H]1O` stands less than 5 µM.

For `C[C@@H](O)[C@H]1O[C@@H](n2cnc3c(N)ncnc32)[C@](C)(O)[C@@H]1O`, the EC50 lay in the range of 5 to 30 µM.

For the compound `C[C@H](O)[C@H]1O[C@@H](n2ccc(N)nc2=O)[C@@H](O)[C@@H]1O`, the EC50 was in the range of 30 to 200 µM. The same measure, in the same setting: under `CC(O)[C@H]1O[C@@H](n2cnc3c(=O)[nH]c(N)nc32)[C@H](O)[C@@H]1O` (stereo partly shown) stands 30 to 200 µM; under `CC(OC(=O)c1ccccc1)[C@H]1O[C@@H](n2ccc(=O)[nH]c2=O)[C@](C)(OC(=O)c2ccccc2)[C@@H]1OC(=O)c1ccccc1` (stereo partly shown), 5 to 30 µM. Turning to `C[C@H](O)[C@H]1O[C@@H](n2ccc(N)nc2=O)C(F)(F)[C@@H]1O`, the EC50 is less than 5 µM. With `C[C@H](O)[C@H]1O[C@@H](n2ccc(N)nc2=O)[C@H](F)[C@@H]1O`, the EC50 lay in the range of 5 to 30 µM. On to `CC(=O)Nc1ccn([C@@H]2O[C@H]([C@H](C)OC(C)=O)[C@@H](OC(C)=O)C2(F)F)c(=O)n1`, for which the concentration giving a half-maximal response (EC50) is less than 5 µM. Same read-out and setting: under `CCC(=O)O[C@@H](C)[C@H]1O[C@@H](n2ccc(N)nc2=O)C(F)(F)[C@@H]1O` stands less than 5 µM; under `CCC(=O)O[C@@H](C)[C@H]1O[C@@H](n2ccc(N)nc2=O)C(F)(F)[C@@H]1OC(=O)CC`, less than 5 µM; under `CC(=O)O[C@@H](C)[C@H]1O[C@@H](n2ccc(N)nc2=O)C(F)(F)[C@@H]1O`, less than 5 µM. For `CC(=O)O[C@@H](C)[C@H]1O[C@@H](n2ccc(N)nc2=O)C(F)(F)[C@@H]1OC(C)=O`, the EC50 is less than 5 µM. On the same count and under the same terms, under `C[C@@H](O)[C@H]1O[C@@H](n2ccc(N)nc2=O)[C@@H](O)[C@@H]1O` stands less than 5 µM.
